Data as given in patent publication US20240148821A1, “PHARMACEUTICAL USE OF CYCLIC PEPTIDE COMPOUND” (CHUGAI SEIYAKU KABUSHIKI KAISHA, priority 2021, published 2024).
pIC50: −log10 of the molar value. Numbered stars: 1 amine (or outer) side, 2 acyl side, 3 side chain; on linkers, the order of the positions; unused ones are H or OH. Bridge positions count the residues as written; N and C are the ends. Square brackets hold non-standard residues; d marks the D form. Peptide text beside a SMILES is read from it. * marks the point of attachment. hPhe(3-Cl-4-CF3) = N[C@@H](CCc1ccc(C(F)(F)F)c(Cl)c1)C(=O)O; NMePhe(4-Cl) = CN[C@@H](Cc1ccc(Cl)cc1)C(=O)O; NEtPhe(2-Cl) = CCN[C@@H](Cc1ccccc1Cl)C(=O)O; NMePhe(4-Me) = CN[C@@H](Cc1ccc(C)cc1)C(=O)O; NMeNle(6-CHF2) = CN[C@@H](CCCCC(F)F)C(=O)O; NMePhe(4-F) = CN[C@@H](Cc1ccc(F)cc1)C(=O)O; NMedβ3hAla = C[C@H](CC(=O)[*:2])N(C)[*:1]; NMeNva(5,5-F2) = CN[C@@H](CCC(F)F)C(=O)O; NMeGly(cPent) = CN[C@H](C(=O)O)C1CCCC1; NMeCha = CN[C@@H](CC1CCCCC1)C(=O)O; NMeI = CC[C@H](C)[C@H](NC)C(=O)O; Piperidide(4-Me) = CC1CCN(*)CC1; NMeD = CN[C@@H](CC(=O)O)C(=O)O; NMeL = CN[C@@H](CC(C)C)C(=O)O; NMeV = CN[C@H](C(=O)O)C(C)C; d(β3hA) = C[C@@H](N)CC(=O)O; NMeA = CN[C@@H](C)C(=O)O; NMeAib = CNC(C)(C)C(=O)O; Piperidide = C1CCN(*)CC1; dNMeA = CN[C@H](C)C(=O)O; Ac5c = NC1(C(=O)O)CCCC1; Aze = O=C(O)[C@@H]1CCN1; X53 = CC1(C)CCN(*)C1; Sar = CNCC(=O)O

Each compound was assayed against protein-protein interaction between Kras and SOS1 (biotin-tagged human Kras loaded with GDP, His-tagged human SOS1) (Homo sapiens (Human), UniProt P01116, G12D) (assay: Protein-protein interaction inhibition between Kras and SOS1 (KrasG12D-SOS PPI) using AlphaScreen). Conditions: AlphaScreen; biotin-tagged human Kras loaded with GDP, His-tagged human SOS1; read-out: KRAS G12D-SOS PPI IC50.
Format: biochemical

| SMILES | pIC50 |
| --- | --- |
| CC[C@H](C)[C@@H]1NC(=O)[C@H](CC(C)C)N(C)C(=O)C[C@@H](C(=O)N2CCCCC2)N(C)C(=O)[C@H](C2CCCC2)N(C)C(=O)C2(CCCC2)NC(=O)[C@@H]2CCCN2C(=O)[C@H](CCc2ccc(C(F)(F)F)c(Cl)c2)NC(=O)CN(C)C(=O)[C@H](Cc2ccc(F)cc2)N(C)C(=O)[C@@H]2CCN2C(=O)[C@H](C)N(C)C1=O [Compound 388] ([NMeL]I[NMeA][Aze][NMePhe(4-F)][Sar][hPhe(3-Cl-4-CF3)]P[Ac5c][NMeGly(cPent)][NMeD]-Piperidide; lactam N-11) | 9.30 |
| CC[C@H](C)[C@@H]1NC(=O)[C@H](CC(C)C)N(C)C(=O)C[C@@H](C)N(C)C(=O)[C@H](CC(C)C)NC(=O)C(C)(C)N(C)C(=O)[C@H](CC(C)C)NC(=O)[C@H](CCc2ccc(C(F)(F)F)c(Cl)c2)NC(=O)[C@@H](C)N(C)C(=O)[C@H](CC2CCCCC2)N(C)C(=O)CN(C)C(=O)CN(C)C1=O [Compound 1389] (cyclo(I[Sar][Sar][NMeCha][dNMeA][hPhe(3-Cl-4-CF3)]L[NMeAib]L[NMedβ3hAla][NMeL])) | 6.62 |
| CC[C@H](C)[C@@H]1NC(=O)[C@H](CCC(F)F)N(C)C(=O)C[C@@H](C(=O)N2CCCCC2)N(C)C(=O)[C@H](C(C)C)N(C)C(=O)C2(CCCC2)NC(=O)[C@@H]2CCCN2C(=O)[C@H](CCc2ccc(C(F)(F)F)c(Cl)c2)NC(=O)CN(C)C(=O)[C@H](CC2CCCCC2)N(C)C(=O)[C@@H]2CCN2C(=O)[C@H](C)N(C)C1=O [Compound 1797] ([NMeNva(5,5-F2)]I[NMeA][Aze][NMeCha][Sar][hPhe(3-Cl-4-CF3)]P[Ac5c][NMeV][NMeD]-Piperidide; lactam N-11) | 8.43 |
| CC[C@H](C)[C@@H]1NC(=O)[C@H](CC(C)C)N(C)C(=O)C[C@@H](C)NC(=O)[C@H](C(C)C)N(C)C(=O)C2(CCCC2)NC(=O)[C@@H]2CCCN2C(=O)[C@H](CCc2ccc(C(F)(F)F)c(Cl)c2)NC(=O)CN(C)C(=O)[C@H](Cc2ccc(Cl)cc2)N(C)C(=O)[C@@H]2CCN2C(=O)CN(C)C1=O [Compound 207] (cyclo([Ac5c][NMeV][d(β3hA)][NMeL]I[Sar][Aze][NMePhe(4-Cl)][Sar][hPhe(3-Cl-4-CF3)]P)) | 8.52 |
| CC[C@H](C)[C@@H]1NC(=O)[C@H](C)N(C)C(=O)C[C@@H](C)NC(=O)[C@H](C(C)C)N(C)C(=O)C2(CCCC2)NC(=O)[C@@H]2CCCN2C(=O)[C@H](CCc2ccc(C(F)(F)F)c(Cl)c2)NC(=O)[C@H]2CCCN2C(=O)[C@H](CC2CCCCC2)N(C)C(=O)CN(C)C(=O)CN(C)C1=O [Compound 412] (cyclo([Ac5c][NMeV][d(β3hA)][NMeA]I[Sar][Sar][NMeCha][dP][hPhe(3-Cl-4-CF3)]P)) | 6.92 |
| CC[C@H](C)[C@@H]1NC(=O)[C@H](CC(C)C)N(C)C(=O)C[C@@H](C(=O)N(C)C)N(C)C(=O)[C@H]([C@@H](C)CC)N(C)C(=O)C2(CCCC2)NC(=O)[C@H](Cc2ccccc2Cl)N(CC)C(=O)[C@H](CCc2ccc(C(F)(F)F)c(Cl)c2)NC(=O)CN(C)C(=O)[C@H](Cc2ccc(C)cc2)N(C)C(=O)[C@@H]2CCN2C(=O)[C@H](C)N(C)C1=O [Compound 2165] ([NMeL]I[NMeA][Aze][NMePhe(4-Me)][Sar][hPhe(3-Cl-4-CF3)][NEtPhe(2-Cl)][Ac5c][NMeI][NMeD]-NMe2; lactam N-11) | 6.66 |
| CC[C@H](C)[C@@H]1NC(=O)[C@H](CC(C)C)N(C)C(=O)C[C@@H](C(=O)N2CCCCC2)N(C)C(=O)[C@H](C(C)C)N(C)C(=O)C2(CCCC2)NC(=O)[C@@H]2CCCN2C(=O)[C@H](CCc2ccc(C(F)(F)F)c(Cl)c2)NC(=O)CN(C)C(=O)[C@H](CCCCC(F)F)N(C)C(=O)[C@@H]2CCN2C(=O)[C@H](C)N(C)C1=O [Compound 78] ([NMeL]I[NMeA][Aze][NMeNle(6-CHF2)][Sar][hPhe(3-Cl-4-CF3)]P[Ac5c][NMeV][NMeD]-Piperidide; lactam N-11) | 8.80 |
| CC[C@H](C)[C@@H]1NC(=O)[C@H](CC(C)C)N(C)C(=O)C[C@@H](C(=O)N2CCC(C)(C)C2)NC(=O)[C@H](C(C)C)N(C)C(=O)C2(CCCC2)NC(=O)[C@@H]2CCCN2C(=O)[C@H](CCc2ccc(C(F)(F)F)c(Cl)c2)NC(=O)CN(C)C(=O)[C@H](CC2CCCCC2)N(C)C(=O)[C@@H]2CCN2C(=O)[C@H](C)N(C)C1=O [Compound 1280] ([NMeL]I[NMeA][Aze][NMeCha][Sar][hPhe(3-Cl-4-CF3)]P[Ac5c][NMeV]D-X53; lactam N-11) | 7.13 |
| CC[C@H](C)[C@@H]1NC(=O)[C@H](CC(C)C)N(C)C(=O)C[C@@H](C(=O)N2CCC(C)CC2)NC(=O)[C@H](C(C)C)N(C)C(=O)C2(CCCC2)NC(=O)[C@@H]2CCCN2C(=O)[C@H](CCc2ccc(C(F)(F)F)c(Cl)c2)NC(=O)CN(C)C(=O)[C@H](CC2CCCCC2)N(C)C(=O)[C@@H]2CCN2C(=O)[C@H](C)N(C)C1=O [Compound 1161] ([NMeL]I[NMeA][Aze][NMeCha][Sar][hPhe(3-Cl-4-CF3)]P[Ac5c][NMeV]D-{Piperidide(4-Me)}; lactam N-11) | 7.22 |
